Tests used:
[1] = target: NPC1-like intracellular cholesterol transporter 1 (Rattus norvegicus, UniProt Q6T3U3); test: Displacement of [3H]ezetimibe-glucuronide from NPC1L1 in Sprague-Dawley rat brush border membrane
[2] = system: Hamster; test: Inhibition of cholesterol absorption in chow fed hamster at 3 mg/kg, po; type: functional; settings: Cricetinae
[3] = Half life in rat hepatocytes; type: ADME, cell-based, Liver, Hepatocyte
[4] = Metabolic stability assessed as half life in rat liver microsomes; type: ADME, Microsome

Chain of NPC1-like intracellular cholesterol transporter 1 (Q6T3U3 21-1331 limits assumed): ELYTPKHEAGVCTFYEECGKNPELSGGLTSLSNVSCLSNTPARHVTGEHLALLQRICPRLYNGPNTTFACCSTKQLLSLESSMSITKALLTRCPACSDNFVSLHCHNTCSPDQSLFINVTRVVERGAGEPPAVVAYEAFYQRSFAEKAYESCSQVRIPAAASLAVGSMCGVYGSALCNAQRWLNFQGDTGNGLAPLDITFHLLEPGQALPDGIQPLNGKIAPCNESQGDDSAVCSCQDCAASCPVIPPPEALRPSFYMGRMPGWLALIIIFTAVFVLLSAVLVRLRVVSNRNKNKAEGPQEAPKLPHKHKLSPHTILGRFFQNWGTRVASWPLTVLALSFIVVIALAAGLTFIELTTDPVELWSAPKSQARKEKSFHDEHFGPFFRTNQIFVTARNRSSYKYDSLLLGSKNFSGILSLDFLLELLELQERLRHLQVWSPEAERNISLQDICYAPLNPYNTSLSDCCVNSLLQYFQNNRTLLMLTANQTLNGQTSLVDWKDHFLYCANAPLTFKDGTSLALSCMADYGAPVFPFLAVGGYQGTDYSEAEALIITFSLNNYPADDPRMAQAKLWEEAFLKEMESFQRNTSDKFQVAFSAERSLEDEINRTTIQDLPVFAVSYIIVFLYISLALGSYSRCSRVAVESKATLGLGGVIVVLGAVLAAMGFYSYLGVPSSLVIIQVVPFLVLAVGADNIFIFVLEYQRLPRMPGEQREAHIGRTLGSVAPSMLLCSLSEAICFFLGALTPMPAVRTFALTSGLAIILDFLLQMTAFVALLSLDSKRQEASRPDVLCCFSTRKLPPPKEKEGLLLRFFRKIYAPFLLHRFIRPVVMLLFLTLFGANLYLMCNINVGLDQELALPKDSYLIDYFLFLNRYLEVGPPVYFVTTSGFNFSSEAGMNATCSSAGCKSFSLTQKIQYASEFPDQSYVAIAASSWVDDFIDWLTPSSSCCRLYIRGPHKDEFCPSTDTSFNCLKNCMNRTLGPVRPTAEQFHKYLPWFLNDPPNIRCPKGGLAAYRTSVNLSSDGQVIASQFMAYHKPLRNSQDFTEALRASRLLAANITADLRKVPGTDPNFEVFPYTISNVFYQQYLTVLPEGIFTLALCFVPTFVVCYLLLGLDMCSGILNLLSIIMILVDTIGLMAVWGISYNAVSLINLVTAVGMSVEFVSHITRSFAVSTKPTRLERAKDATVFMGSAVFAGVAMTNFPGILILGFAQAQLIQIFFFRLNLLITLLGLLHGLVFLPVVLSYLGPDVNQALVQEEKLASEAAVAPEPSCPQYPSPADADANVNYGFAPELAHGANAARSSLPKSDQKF

| Ki [1] | SMILES | also measured |
| --- | --- | --- |
| > 50 µM | O=C(O)[C@H]1O[C@@H](Oc2ccc([C@@H]3[C@@H]([C@H](O)CCc4ccccc4)OC(=O)N3c3ccc(F)cc3)cc2)[C@H](O)[C@@H](O)[C@@H]1O | – |
| 4.8 µM | COc1ccc([C@@H]2[C@@H]([C@H](O)CCc3ccccc3)OC(=O)N2c2ccc(F)cc2)c(O)c1 | half-life [3]: 4.15 h |
| > 50 µM | COc1ccc([C@@H]2[C@@H]([C@H](O)CCc3ccccc3)OC(=O)N2c2ccc(F)cc2)c(OC)c1 | – |
| 9.2 µM | O=C1O[C@H]([C@H](O)CCc2ccccc2)[C@@H](c2ccc(O)cc2O)N1c1ccc(F)cc1 | half-life [3]: 2.27 h |
| 9.9 µM | O=C1O[C@H](CC[C@H](O)c2ccc(F)cc2)[C@@H](c2ccc(O)cc2)N1c1ccc(F)cc1 | – |
| 12 µM | O=C1O[C@H]([C@H](O)CCc2ccccc2)[C@@H](c2ccccc2O)N1c1ccc(F)cc1 | inhibition in vivo at 3 mg/kg [2]: 0% |
| 28 µM | O=C1O[C@H]([C@H](O)COc2ccc(F)cc2)[C@@H](c2ccc(O)cc2)N1c1ccc(F)cc1 | half-life [3]: 1.12 h |
| 14 µM | CN(Cc1ccc(F)cc1)C(=O)[C@H]1OC(=O)N(c2ccc(F)cc2)[C@@H]1c1ccc(O)cc1 | – |
| > 50 µM | O=C(NC[C@H]1OC(=O)N(c2ccc(F)cc2)[C@@H]1c1ccc(O)cc1)c1ccc(F)cc1 | – |
| 19 µM | O=C1O[C@H]([C@H](O)CNc2ccc(F)cc2)[C@@H](c2ccc(O)cc2)N1c1ccc(F)cc1 | – |
| 28 µM | COc1ccc([C@@H]2[C@@H]([C@H](O)COc3ccc(F)cc3)OC(=O)N2c2cccc(F)c2)c(O)c1 | inhibition in vivo at 3 mg/kg [2]: 0% |
| > 50 µM | O=C1O[C@H]([C@H](O)CCc2ccccc2)[C@@H](c2ccc(O)cc2)N1c1ccc(F)cc1 | – |

The next lines start with the compound.

| SMILES | Ki [1] | also measured |
| --- | --- | --- |
| COc1ccc(O)c([C@@H]2[C@@H]([C@H](O)CCc3ccccc3)OC(=O)N2c2cccc(F)c2)c1 | > 50 µM | – |
| COc1cccc(CN(C)C(=O)[C@H]2OC(=O)N(c3ccc(F)cc3)[C@@H]2c2ccc(O)cc2)c1 | 11 µM | – |
| O=C1O[C@H]([C@H](O)CCc2ccccc2)[C@@H](c2cccc(F)c2O)N1c1cccc(F)c1 | > 50 µM | inhibition in vivo at 3 mg/kg [2]: 0% |
| O=C1O[C@H]([C@H](O)CCc2ccccc2)[C@@H](c2ccc(O)cc2)N1c1ccccc1F | > 50 µM | – |
| O=C1O[C@H]([C@H](O)CCc2ccccc2)[C@@H](c2cc(F)ccc2O)N1c1cccc(F)c1 | 18 µM | inhibition in vivo at 3 mg/kg [2]: 0% |
| Cc1ccc([C@@H]2[C@@H]([C@H](O)CCc3ccccc3)OC(=O)N2c2cccc(F)c2)c(O)c1 | 16 µM | – |
| COc1ccc([C@@H]2[C@@H](C(=O)N3CCc4ccccc4C3)OC(=O)N2c2cccc(F)c2)c(O)c1 | 3.6 µM | – |
| O=C(NCc1ccc(F)cc1)[C@H]1OC(=O)N(c2ccc(F)cc2)[C@@H]1c1ccc(O)cc1 | 30 µM | – |
| COc1ccc([C@@H]2[C@@H]([C@H](O)CCc3ccccc3)OC(=O)N2c2cccc(F)c2)c(O)c1 | 2.3 µM | – |
| O=C1O[C@H]([C@H](O)CCc2ccccc2)[C@@H](c2ccc(O)cc2)N1c1cccc(F)c1 | 11 µM | half-life [3]: 1.18 h |
| COc1ccc([C@@H]2[C@@H](C(=O)N(C)Cc3ccc(F)cc3)OC(=O)N2c2cccc(F)c2)c(O)c1 | 1.4 µM | inhibition in vivo at 3 mg/kg [2]: 0% |
| COc1cccc(OC[C@@H](O)[C@H]2OC(=O)N(c3ccc(F)cc3)[C@@H]2c2ccc(O)cc2)c1 | 15 µM | – |
| COc1ccc(OC[C@@H](O)[C@H]2OC(=O)N(c3ccc(F)cc3)[C@@H]2c2ccc(O)cc2)cc1 | > 50 µM | – |
| O=C(O)[C@H]1O[C@@H](Oc2ccc([C@@H]3[C@@H](CC[C@H](O)c4ccc(F)cc4)C(=O)N3c3ccc(F)cc3)cc2)[C@H](O)[C@@H](O)[C@@H]1O | 0.18 µM | half-life [4]: > 1 h |
| COc1cccc([C@@H]2[C@@H]([C@H](O)CCc3ccccc3)OC(=O)N2c2cccc(F)c2)c1O | 5.7 µM | – |
| O=C1O[C@H]([C@H](O)COc2ccc(Cl)cc2)[C@@H](c2ccc(O)cc2)N1c1ccc(F)cc1 | 49 µM | – |
| O=C1O[C@H]([C@H](O)CCc2ccccc2)[C@@H](c2ccc(F)cc2O)N1c1cccc(F)c1 | 19 µM | inhibition in vivo at 3 mg/kg [2]: 0% |
| COc1ccc([C@@H]2[C@@H](CCCc3ccccc3)OC(=O)N2c2ccc(OC)cc2)cc1 | > 50 µM | – |
| COc1cccc(OC[C@@H](O)[C@H]2OC(=O)N(c3cccc(F)c3)[C@@H]2c2ccc(OC)cc2O)c1 | 8.7 µM | – |
| O=C1O[C@H]([C@H](O)CCc2ccccc2)[C@@H](c2cccc(O)c2)N1c1ccc(F)cc1 | 33 µM | – |
| O=C1[C@H](CC[C@H](O)c2ccc(F)cc2)[C@@H](c2ccc(O)cc2)N1c1ccc(F)cc1 [EZETIMIBE] | 0.2 µM | half-life [4]: 0.158 h; half-life [3]: 0.717 h |
